Patent publication US11707453B2, “Treatment of unipolar depressive disorder” (OXFORD UNIVERSITY INNOVATION LIMITED, priority 2017, dated 2023)

How the values were obtained:
5-HT2A receptor [1] = test: DOI-evoked head-twitch (HTR) and ear scratch (ESR) behavioural responses; type: in vivo, mice; conditions: for DOI-evoked ESR / DOI-evoked HTR: vs DOI alone
5-HT2A receptor [2] = test: DOI-evoked IEG (c-fos, Arc, egr2 mRNA) expression, in situ hybridization; type: in vivo, mice
Description: In separate molecular studies, central 5-HT2A receptor function was assessed by measuring DOI-induced mRNA expression of the IEG c-fos, as well as complementary IEGs Arc and egr2 in cortical regions (Gonzalez-Maeso et al., 2007; Jennings et al., 2008). The challenge dose of DOI (2 mg kg^−1 i.p.) was selected on the basis of preliminary dose response studies and evidence that DOI-evoked IEG expression was blocked by a selective 5-HT2A receptor antagonist (Jennings et al., 2008).
Mice were randomly allocated to one of the following treatments (6 mice per group); i) acute ebselen (10 mg kg^−1 i.p.) or vehicle, ii) repeated lithium (3 days; 10 mmol kg^−1 i.p. on day 1, 3 mmol kg^−1 i.p. twice daily on days 2-3) or vehicle. Drug doses and pre-treatment times were selected as noted above; ebselen (1 h), lithium (18 h). Groups of mice were acclimatised to a procedure room for 4 h prior to each experiment. […]
c-Fos, Arc and egr2 mRNA was measured on tissue sections using in situ hybridization (Jennings et al., 2008). […]
Optical density measurements were obtained from the autoradiograms using computer-based image analysis (MCID software). Optical density readings were converted in nCi g^−1 of tissue by calibration with the use of [^14C] microscales, which were co-exposed with the slides. […]

5-HT2A receptor [3] = test: Psilocin-evoked head-twitch response (HTR); type: in vivo, mice; conditions: ebselen pretreatment; psilocin 2 mg kg^-1 i.p.
brain extracellular 5-HT = test: Microdialysis, extracellular 5-HT in hippocampus; type: in vivo, mice
Description: The microdialysis probe was connected to a perfusion pump (CMA/100, CMA Microdialysis Ltd.) and perfused (2 μl min^−1) continuously with artificial CSF (140 mM NaCl, 3 mM KCl, 1.2 mM Na2HPO4, 0.27 mM NaH2PO4, 1 mM MgCl2, 2.4 mM CaCl2 and 7.2 mM glucose). After 2 h perfusate samples were collected every 20 min and analysed immediately by HPLC with electrochemical detection (see below).
Once 3 consecutive baseline samples were stable, mice received a single injection of ebselen (10 mg kg^−1 i.p.) or vehicle. Citalopram (5 mg kg^−1 i.p.) was administered 1 h later and dialysates were collected for a further 2 h. At the end of each experiment, brains were removed and probe placement was confirmed by histological examination.
(§1) Both mcrodialysates (20 μl) and brain tissue supernatants (50 μl) were analysed by an HPLC system, comprising a silica-based, reversed phase column (3.0 μm ODS2, 4.6 mm×100 mm, Waters Ltd) coupled to an electrochemical detector (glass carbon working electrode versus Ag/AgCl reference; LC-4C, Bioanalytical systems). For microdialysates, analytes were separated at room temperature by an isocratic mobile phase comprising 12.5% (v/v) methanol, 0.13 M NaHPO4.H2O, 0.025 mM octane sulphonic acid, 0.85 mM EDTA and 2 mM NaCl at pH 3.5, and with the working electrode set at +0.7 V.

[4] = reported in WO 2012/107735; cited from earlier work
[5] = rats; cited from earlier work
[6] = Tissue levels of 5-HT, 5-HIAA and tryptophan; type: in vivo, mouse; conditions: 1 h post-drug
Description: (§2) The level of 5-HT synthesis in frontal cortex and hippocampus was obtained by measuring the accumulation of 5-HTP following inhibition of aromatic amino acid decarboxylase. Mice (n=6 per group) were administered ebselen (0.5, 1 or 5 mg kg^−1 i.p.) or vehicle and 1 h later animals were injected with the aromatic amino acid decarboxylase inhibitor NSD1015 (100 mg kg^−1 i.p.). Mice were then culled by cervical dislocation 30 min following NSD1015 and brain tissue was removed and stored at −80° C. Separate experiments measured levels of 5-HT, 5-HIAA and tryptophan in cortex and hippocampus. Mice (n=6 per group) were administered ebselen (0.5, 1 or 5 mg kg^−1 i.p.) or vehicle and then culled by cervical dislocation 1 h post-drug. Brain tissue was dissected out and stored at −80° C. prior to neurochemical analysis.
(§3) On the day of neurochemical analysis, tissue pieces (˜20 mg) of frozen frontal cortex and hippocampus were placed in Eppendorf tubes containing 500 μl perchloric acid (0.09 M) and homogenised using a polytron kinetic homogeniser (15000 rpm for 10 sec). Tissue homogenates were then centrifuged (1000 rpm for 10 min) and the supernatant was transferred in a new Eppendorf tube, protected from light, and kept on ice before analysis using HPLC with electrochemical detection (see below).
as §1
(§4) For measurement of 5-HT, 5-HIAA and tryptophan in brain tissue supernatants, analytes were separated at room temperature by an isocratic mobile phase comprising an isocratic mix of 15% (v/v) methanol, 2 mM 1-octanesulphonic acid, 0.12 M NaHPO4.H2O, 2 mM NaCl, and 0.1 mM EDTA at pH 3.7 with the working electrode set at +0.85V. For measurement of 5-HTP the mobile phase was adjusted to pH 3.4.

5-HT synthesis = 5-HT synthesis (5-HTP accumulation after NSD1015); type: in vivo, mouse
Description: as §2, §3, §1, §4

[7] = test system: 5-HT2A receptor binding sites; test: Receptor autoradiography, [3H]-ketanserin binding sites in frontal cortex after treatment; type: in vivo, mouse
Description: The effect of ebselen and lithium treatment on the abundance of cortical 5-HT2A receptor binding sites was measured using receptor autoradiography. Mice were randomly allocated to one of the following treatments (6 mice per group); i) acute ebselen (10 mg kg^−1 i.p.) or vehicle, ii) repeated ebselen (10 mg kg^−1 i.p., twice daily for 7 days; last injection morning of the 8th day) or vehicle, and iii) repeated lithium (7 days; 10 mmol kg^−1 i.p. on day 1, 3 mmol kg^−1 i.p. twice daily on days 2-7) or vehicle.
Tissue sections (12 μm) were cryostat-cut at the level of the frontal cortex and stored in −80° C. On the day of the experiment, sections were incubated (at room temperature) in Tris-HCl buffer (0.17 M, pH 7.7) for 20 min, and then for 2 h with either 2 nM [^3H]-ketanserin (PerkinElmer) to determine total binding, or 2 nM [^3H]-ketanserin plus 10 μM methysergide to determine non-specific binding. Sections were then washed twice for 10 min with ice-cold 4° C. Tris-HCl buffer (0.17 M, pH 7.7), followed by double deionised water. Finally, slides were air-dried overnight before being exposed to autoradiographic films (BioMax MR, Kodak) for 12 weeks.
Optical density measurements were obtained from the autoradiograms as described above. […] Specific binding was calculated by subtracting non-specific binding from total binding. […]

[8] = clinical trials for ischemic stroke (Yamaguchi et al 1998); cited from earlier work
[9] = AR-A014418 10 or 20 mg kg^-1 i.p. pretreatment
[10] = acute ebselen 1, 5 or 10 mg kg^-1 i.p., DOI 2 mg kg^-1 i.p.
[11] = repeated ebselen 10 mg kg^-1 i.p. for 7 days
[12] = L-690,330 150 or 240 mg kg^-1 i.p. pretreatment

COc1ccc(CNC(=O)Nc2ncc([N+](=O)[O-])s2)cc1 [AR-A014418, N-[(4-methoxyphenyl)methyl]-N′-(5-nitro-2-thiazolyl) urea, reference compound]
DOI-induced ESR (5-HT2A receptor [1]; [9]): did not affect
DOI-induced HTR (5-HT2A receptor [1]; [9]): did not affect

COc1cc(CC(C)N)c(OC)cc1I (stereo not shown) [DOI, 1-(2,5-dimethoxy-4-iodophenyl)-propan-2-amine, reference compound]
Increase in IEG mRNA above vehicle-injected controls (5-HT2A receptor [2]; DOI 2 mg kg^-1 i.p., selected brain regions): 50-200%

O=c1c2ccccc2[se]n1-c1ccccc1 [Ebselen, 2-phenyl-1,2-benzisoselenazol-3(2H)-one]
Psilocin-induced HTR (5-HT2A receptor [3]): decreased
Effect of citalopram on extracellular 5-HT after ebselen pretreatment (brain extracellular 5-HT; ebselen 10 mg kg^-1 i.p. 1 h before citalopram 5 mg kg^-1 i.p., greatest effect 20-40 min post citalopram): enhanced
Extracellular 5-HT, ebselen alone (brain extracellular 5-HT; ebselen 10 mg kg^-1 i.p., vs vehicle-injected controls): no effect
DOI-evoked ESR (5-HT2A receptor [1]; [10]): dose-related decrease
DOI-evoked HTR (5-HT2A receptor [1]; [10]): dose-related decrease
Inhibitory effect on DOI-evoked ESR (5-HT2A receptor [1]; [11]): persisted
Inhibitory effect on DOI-evoked HTR (5-HT2A receptor [1]; [11]): persisted
Transfer across the blood/brain barrier [4]: capable of transferring across the blood/brain barrier
LD50 [5]: greater than 1000 mg/kg
5-HIAA Cortex ([6]; ebselen 0.5 mg kg^-1 i.p.): 83.3 ± 14.4 % of vehicle
5-HIAA Hippocampus ([6]; ebselen 0.5 mg kg^-1 i.p.): 129.8 ± 12.9 % of vehicle
5-HT Cortex ([6]; ebselen 0.5 mg kg^-1 i.p.): 158.1 ± 14.7 % of vehicle
5-HT Hippocampus ([6]; ebselen 0.5 mg kg^-1 i.p.): 234.4 ± 23.9 % of vehicle
Tryptophan Cortex ([6]; ebselen 0.5 mg kg^-1 i.p.): 105.0 ± 10.3 % of vehicle
Tryptophan Hippocampus ([6]; ebselen 0.5 mg kg^-1 i.p.): 210.2 ± 35.1 % of vehicle
5-HIAA Cortex ([6]; ebselen 1 mg kg^-1 i.p.): 75.9 ± 6.3 % of vehicle
5-HIAA Hippocampus ([6]; ebselen 1 mg kg^-1 i.p.): 141.0 ± 9.5 % of vehicle
5-HT Cortex ([6]; ebselen 1 mg kg^-1 i.p.): 148.6 ± 11.2 % of vehicle
5-HT Hippocampus ([6]; ebselen 1 mg kg^-1 i.p.): 225.9 ± 14.3 % of vehicle
Tryptophan Cortex ([6]; ebselen 1 mg kg^-1 i.p.): 122.7 ± 20.6 % of vehicle
Tryptophan Hippocampus ([6]; ebselen 1 mg kg^-1 i.p.): 128.5 ± 13.6 % of vehicle
5-HIAA Cortex ([6]; ebselen 5 mg kg^-1 i.p.): 88.7 ± 3.8 % of vehicle
5-HIAA Hippocampus ([6]; ebselen 5 mg kg^-1 i.p.): 139.2 ± 17.0 % of vehicle
5-HT Cortex ([6]; ebselen 5 mg kg^-1 i.p.): 130.9 ± 4.8 % of vehicle
5-HT Hippocampus ([6]; ebselen 5 mg kg^-1 i.p.): 189.4 ± 21.4 % of vehicle
Tryptophan Cortex ([6]; ebselen 5 mg kg^-1 i.p.): 131.9 ± 14.5 % of vehicle
Tryptophan Hippocampus ([6]; ebselen 5 mg kg^-1 i.p.): 135.4 ± 17.2 % of vehicle
5-HTP Cortex (5-HT synthesis; ebselen 0.5 mg kg^-1 i.p.): 109.7 ± 10.6 % of vehicle
5-HTP Hippocampus (5-HT synthesis; ebselen 0.5 mg kg^-1 i.p.): 87.9 ± 14.6 % of vehicle
5-HTP Cortex (5-HT synthesis; ebselen 1 mg kg^-1 i.p.): 100.4 ± 3.7 % of vehicle
5-HTP Hippocampus (5-HT synthesis; ebselen 1 mg kg^-1 i.p.): 95.6 ± 6.5 % of vehicle
5-HTP Cortex (5-HT synthesis; ebselen 5 mg kg^-1 i.p.): 202.5 ± 15.0 % of vehicle
5-HTP Hippocampus (5-HT synthesis; ebselen 5 mg kg^-1 i.p.): 152.6 ± 9.0 % of vehicle
[^3H]-Ketanserin binding sites ([7]; acute ebselen 10 mg kg^-1 i.p. (2h), vehicle 4.33 ± 0.66): 3.36 ± 0.38 nCi g^-1 of tissue
[^3H]-Ketanserin binding sites ([7]; repeated ebselen 10 mg kg^-1 i.p. (7 days), vehicle 6.60 ± 0.27): 6.12 ± 0.63 nCi g^-1 of tissue
Toxicity in humans at pharmaceutically effective dosages [8]: sufficiently non-toxic
IEG responses to DOI (Arc, c-fos, egr-2 mRNA) (5-HT2A receptor [2]; ebselen 10 mg kg^-1 i.p., cingulate and somatosensory cortex (Arc, c-fos), caudate nucleus and endopiriform cortex (egr-2)): attenuated

CC(Oc1ccc(O)cc1)(P(=O)(O)O)P(=O)(O)O [L-690,330, [1-(4-hydroxyphenoxy)ethylidene]bisphosphonic acid, reference compound]
DOI-evoked ESR (5-HT2A receptor [1]; [12]): decreased
DOI-evoked HTR (5-HT2A receptor [1]; [12]): decreased

CN(C)CCCC1(c2ccc(F)cc2)OCc2cc(C#N)ccc21 (stereo not shown) [citalopram, reference compound]
Peak increase of 5-HT in hippocampal microdialysates above pre-drug values (brain extracellular 5-HT; citalopram 5 mg kg^-1 i.p., 60 min post injection, awake mice): approximately 450%
